# Results from patent US8853230B2, “Inhibitors of JAK” (Portola Pharmaceuticals, Inc., priority 2009, dated 2014).
# Tests used:
# Type in all cases: biochemical
# [1] = target: T1, JAK3 (Homo sapiens, UniProt P52333); assay: Z'-LYTE kinase assay, JAK3 tyrosine phosphorylation activity
# T1 construct: 5 μl of catalytic domain recombinant Kinase enzyme+Tyr peptide substrate (Invitrogen, Calif.); purchased Invitrogen
# Method in brief: (§1)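 Compounds are serially diluted 1:10 in DMSO and tested in duplicate at 1% final DMSO. Each recombinant catalytic domain phosphorylates the Tyr6 FRET peptide with ATP for 1 h at room temperature, then a site-specific protease cleaves unphosphorylated peptide over 1 h before coumarin/fluorescein emission is read.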
# [2] = target: T2, JAK1 (Homo sapiens, UniProt P23458); assay: Z'-LYTE kinase assay, JAK1 tyrosine phosphorylation activity; settings: read-out: JAK 1 IC50
# T2 construct: 5 μl of catalytic domain recombinant Kinase enzyme+Tyr peptide substrate (Invitrogen, Calif.); purchased Invitrogen
# Method in brief: as §1
# [3] = target: Syk (Homo sapiens, UniProt P43405); assay: Syk IC50 (Table 1; method not given)
# [4] = target: T3, JAK2 (Homo sapiens, UniProt O60674); assay: Z'-LYTE kinase assay, JAK2 tyrosine phosphorylation activity
# T3 construct: 5 μl of catalytic domain recombinant Kinase enzyme+Tyr peptide substrate (Invitrogen, Calif.); purchased Invitrogen
# Method in brief: as §1
# T2 sequence (P23458 875-1153 limits assumed): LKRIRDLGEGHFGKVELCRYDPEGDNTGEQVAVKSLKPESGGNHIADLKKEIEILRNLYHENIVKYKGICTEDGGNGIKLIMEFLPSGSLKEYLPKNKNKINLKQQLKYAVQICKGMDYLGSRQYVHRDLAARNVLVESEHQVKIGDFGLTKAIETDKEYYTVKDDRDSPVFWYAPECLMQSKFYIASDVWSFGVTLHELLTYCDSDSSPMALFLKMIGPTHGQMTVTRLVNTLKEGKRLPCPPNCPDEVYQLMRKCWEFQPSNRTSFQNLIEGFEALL
# T1 sequence (P52333 822-1111 limits assumed): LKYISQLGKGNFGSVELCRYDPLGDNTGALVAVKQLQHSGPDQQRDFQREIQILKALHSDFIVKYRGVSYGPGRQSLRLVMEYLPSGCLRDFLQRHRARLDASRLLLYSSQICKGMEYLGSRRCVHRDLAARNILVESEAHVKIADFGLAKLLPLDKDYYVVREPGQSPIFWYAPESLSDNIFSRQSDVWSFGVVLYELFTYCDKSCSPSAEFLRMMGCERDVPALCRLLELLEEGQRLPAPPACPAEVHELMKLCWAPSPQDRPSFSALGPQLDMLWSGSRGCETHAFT
# T3 sequence (O60674 849-1124 limits assumed): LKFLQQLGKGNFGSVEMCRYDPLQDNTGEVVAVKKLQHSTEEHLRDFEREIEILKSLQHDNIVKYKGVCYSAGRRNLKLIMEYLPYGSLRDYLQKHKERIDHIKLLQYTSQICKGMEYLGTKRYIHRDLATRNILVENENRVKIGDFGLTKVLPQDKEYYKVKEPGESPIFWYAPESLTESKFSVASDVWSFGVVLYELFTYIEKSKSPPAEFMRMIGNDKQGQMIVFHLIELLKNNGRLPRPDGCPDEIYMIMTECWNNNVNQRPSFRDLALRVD
Structure (SMILES),IC50 [1] [µM],IC50 [2] [µM],IC50 [3] [µM],IC50 [4] [µM]
"COC(=O)Nc1cc(Nc2ncc(C(N)=O)c(NCC(F)(F)F)n2)ccc1Cl [Example 18, methyl 5-(5-carbamoyl-4-(2,2,2-trifluoroethylamino)pyrimidin-2-ylamino)-2-chlorophenylcarbamate]",0.01 to 0.1,> 1,> 1,0.1 to 1
"NC(=O)c1cnc(Nc2cccc(NC(=O)C3CC3)c2)nc1NC1CCCC1 [Example 19, 4-(cyclopentylamino)-2-(3-(cyclopropanecarboxamido)phenylamino)pyrimidine-5-carboxamide]",0.001 to 0.01,0.01 to 0.1,0.1 to 1,0.01 to 0.1
"CCC(=O)Nc1cccc(Nc2ncc(C(N)=O)c(NC3CCCC3)n2)c1 [Example 21, 4-(cyclopentylamino)-2-(3-propionamidophenylamino)pyrimidine-5-carboxamide]",0.001 to 0.01,0.01 to 0.1,0.1 to 1,0.01 to 0.1
"COCC(=O)Nc1cccc(Nc2ncc(C(N)=O)c(NC3CCCC3)n2)c1 [Example 22, 4-(cyclopentylamino)-2-(3-(2-methoxyacetamido)phenylamino)pyrimidine-5-carboxamide]",0.001 to 0.01,0.01 to 0.1,0.1 to 1,0.01 to 0.1
"COC(=O)Nc1cccc(Nc2ncc(C(N)=O)c(NC3CCCC3)n2)c1 [Example 23, methyl 3-(5-carbamoyl-4-(cyclopentylamino)pyrimidin-2-ylamino)phenylcarbamate]",0.001 to 0.01,0.01 to 0.1,0.1 to 1,0.01 to 0.1
"COC(=O)Nc1cc(Nc2ncc(C(N)=O)c(NC3CCCC3)n2)ccc1Cl [Example 25, methyl 5-(5-carbamoyl-4-(cyclopentylamino)pyrimidin-2-ylamino)-2-chlorophenylcarbamate]",0.01 to 0.1,0.01 to 0.1,0.1 to 1,0.1 to 1
"NC(=O)Nc1cccc(Nc2ncc(C(N)=O)c(NC3CCCC3)n2)c1 [Example 33, 4-(cyclopentylamino)-2-(3-ureidophenylamino)pyrimidine-5-carboxamide]",0.001 to 0.01,0.01 to 0.1,0.1 to 1,0.01 to 0.1
"CNC(=O)Nc1cccc(Nc2ncc(C(N)=O)c(NC3CCCC3)n2)c1 [Example 34, 4-(cyclopentylamino)-2-(3-(3-methylureido)phenylamino)pyrimidine-5-carboxamide]",0.001 to 0.01,0.01 to 0.1,0.1 to 1,0.01 to 0.1
"CN(C)C(=O)Nc1cccc(Nc2ncc(C(N)=O)c(NC3CCCC3)n2)c1 [Example 35, 4-(cyclopentylamino)-2-(3-(3,3-dimethylureido)phenylamino)pyrimidine-5-carboxamide]",0.001 to 0.01,0.01 to 0.1,0.1 to 1,0.01 to 0.1
"CCNC(=O)Nc1cccc(Nc2ncc(C(N)=O)c(NC3CCCC3)n2)c1 [Example 36, 4-(cyclopentylamino)-2-(3-(3-ethylureido)phenylamino)pyrimidine-5-carboxamide]",0.001 to 0.01,0.01 to 0.1,0.1 to 1,0.01 to 0.1
"COCC(=O)Nc1cccc(Nc2ncc(C(N)=O)c(N[C@@H](C)c3ccccc3)n2)c1 [Example 42, (S)-2-(3-(2-methoxyacetamido)phenylamino)-4-(1-phenylethylamino)pyrimidine-5-carboxamide]",0.1 to 1,0.1 to 1,> 1,0.1 to 1
"COCC(=O)Nc1cccc(Nc2ncc(C(N)=O)c(NCc3ccc(C)cc3)n2)c1 [Example 43, 2-(3-(2-methoxyacetamido)phenylamino)-4-(4-methylbenzylamino)pyrimidine-5-carboxamide]",0.01 to 0.1,0.1 to 1,> 1,0.1 to 1
"COCC(=O)Nc1cccc(Nc2ncc(C(N)=O)c(NCc3ccc(OC)cc3)n2)c1 [Example 44, 2-(3-(2-methoxyacetamido)phenylamino)-4-(4-methoxybenzylamino)pyrimidine-5-carboxamide]",0.01 to 0.1,0.1 to 1,> 1,0.1 to 1
"COCC(=O)Nc1cccc(Nc2ncc(C(N)=O)c(NCc3ccc(Cl)cc3)n2)c1 [Example 45, 4-(4-chlorobenzylamino)-2-(3-(2-methoxyacetamido)phenylamino)pyrimidine-5-carboxamide]",0.1 to 1,> 1,> 1,0.1 to 1
"COCC(=O)Nc1cccc(Nc2ncc(C(N)=O)c(NCc3ccc(Cl)c(Cl)c3)n2)c1 [Example 46, 4-(3,4-dichlorobenzylamino)-2-(3-(2-methoxyacetamido)phenylamino)pyrimidine-5-carboxamide]",0.1 to 1,> 1,> 1,> 1
"CC(=O)Nc1cccc(Nc2ncc(C(N)=O)c(NC[C@@H](O)c3ccccc3)n2)c1 [Example 48, (S)-2-(3-acetamidophenylamino)-4-(2-hydroxy-2-phenylethylamino)pyrimidine-5-carboxamide]",0.001 to 0.01,0.1 to 1,> 1,0.01 to 0.1
"CC(=O)Nc1cccc(Nc2ncc(C(N)=O)c(NC[C@H](O)c3ccccc3)n2)c1 [Example 49, (R)-2-(3-acetamidophenylamino)-4-(2-hydroxy-2-phenylethylamino)pyrimidine-5-carboxamide]",0.001 to 0.01,0.1 to 1,0.1 to 1,0.01 to 0.1
"CC(=O)Nc1cccc(Nc2ncc(C(N)=O)c(NCC(N)=O)n2)c1 [Example 50, 2-(3-acetamidophenylamino)-4-(2-amino-2-oxoethylamino)pyrimidine-5-carboxamide]",0.1 to 1,0.1 to 1,> 1,0.1 to 1
"CC(=O)Nc1cccc(Nc2ncc(C(N)=O)c(NC3CC3c3ccccc3)n2)c1 (centres unmarked) [Example 51, 2-(3-acetamidophenylamino)-4-(2-phenylcyclopropylamino)pyrimidine-5-carboxamide]",0.01 to 0.1,0.1 to 1,0.1 to 1,0.01 to 0.1
"CC(=O)Nc1cccc(Nc2ncc(C(N)=O)c(N(C)Cc3ccccc3)n2)c1 [Example 54, 2-(3-acetamidophenylamino)-4-(benzyl(methyl)amino)pyrimidine-5-carboxamide]",0.1 to 1,> 1,> 1,0.1 to 1
"COCC(=O)Nc1cccc(Nc2ncc(C(N)=O)c(NC3CCC3)n2)c1 [Example 55, 4-(cyclobutylamino)-2-(3-(2-methoxyacetamido)phenylamino)pyrimidine-5-carboxamide]",0.001 to 0.01,0.01 to 0.1,0.1 to 1,0.01 to 0.1
"CC(=O)Nc1cccc(Nc2ncc(C(N)=O)c(NCCc3ccccc3)n2)c1 [Example 56, 2-(3-acetamidophenylamino)-4-(phenethylamino)pyrimidine-5-carboxamide]",0.01 to 0.1,0.1 to 1,0.1 to 1,0.01 to 0.1
"COCC(=O)Nc1cccc(Nc2ncc(C(N)=O)c(NCc3c(F)ccc(F)c3F)n2)c1 [Example 58, 2-(3-(2-methoxyacetamido)phenylamino)-4-(2,3,6-trifluorobenzylamino)pyrimidine-5-carboxamide]",0.001 to 0.01,0.01 to 0.1,0.1 to 1,0.001 to 0.01
